Structures can show the parent of a compound that is named as a salt.
Assay: Solid-state chemical stability under different storage conditions (liquid chromatography)
Format: physicochemical
Conditions: for Stability of solid state compound, 0 Days (%): liquid chromatography
Protocol: The HPLC conditions were as follows:
Configuration of test solution: appropriate amount of sample was dissolved and diluted with a diluent (0.03 mol/L phosphate buffer-acetonitrile (80:20)) to make 1 mg/mL solution.
Chromatographic conditions: according to the high performance liquid chromatography (Chinese Pharmacopoeia 2020 version of the four general 0512) test, using octadecyl-bonded silica gel (Agilent Eclipse Plus C18, 4.6 mm*250 mm, 5.0 μm, P/N for 959990-902 or a chromatographic column with equivalent performance) as a filler; 0.03 mol/L phosphate buffer (4.08 g of potassium dihydrogen phosphate was dissolved in 1000 ml of water and shaken well) was used as mobile phase A and acetonitrile as mobile phase B at a flow rate of 1 ml/min, the column temperature was 30° C., the detection wavelength was 220 nm, the injection volume was 10 ul, and the sample plate was controlled to 8° C. and running for 65 min. Gradient elution was performed according to the following table: […]
Configuration of test solution: appropriate amount of the product was dissolved and diluted with a diluent (0.1% phosphoric acid-acetonitrile (80:20)) to make 1 mg/mL solution.
Chromatographic conditions: according to the high performance liquid chromatography (Chinese Pharmacopoeia 2020 version of the four general 0512) test, using octadecyl bonded silica gel (Agilent Eclipse Plus C18, 4.6 mm*250 mm, 5.0 μm, P/N 959990-902 or a chromatographic column with equivalent performance) as a filler; 0.1% phosphate buffer (1 ml of phosphoric acid in 1000 ml of water and shake well) as mobile phase A, acetonitrile as mobile phase B, flow rate of 1 ml/min, column temperature of 30° C., detection wavelength of 220 nm, injection volume of 10 ul, running for 48 minutes. Gradient elution was performed according to the following table: […]

Structure (SMILES)	Stability of solid state compound, 0 Days (%) (40° C., 75% RH)	Stability of solid state compound, 5 Days (%) (40° C., 75% RH)	Stability of solid state compound, 10 Days (%) (40° C., 75% RH)	Stability of solid state compound, 30 Days (%) (40° C., 75% RH)	Stability of solid state compound, 0 Days (%) (25° C., 60% RH)	Stability of solid state compound, 10 Days (%) (25° C., 60% RH)	Stability of solid state compound, 30 Days (%) (25° C., 60% RH)	Stability of solid state compound, 60 Days (%) (40° C., 75% RH, 60 days)
CN[C@@]1(c2ccc(C(F)(F)F)cc2)CCC[C@@H](O)C1=O.Cl [Comparative compound 8, reference compound]	98.4	73.0						
Cl.NC1(c2c(F)cc(F)cc2F)CCCC(O)C1=O (centres unmarked) [Comparative compound 13, reference compound]	98.31		97.05	96.04				
CNC1(c2cccc(C#N)c2)CCCC(C)(O)C1=O.Cl (centres unmarked) [Compound 63, 3-(3-hydroxy-3-methyl-1-methylamino-2-oxocyclohexyl)benzonitrile hydrochloride]	99.67	99.66	99.66	99.66				
CN[C@@]1(c2cccc(C#N)c2)CCC[C@](C)(O)C1=O.Cl [Compound 64, 3-((1R, 3S)-3-hydroxy-3-methyl-1-methylamino-2-oxocyclohexyl)benzonitrile hydrochloride]	99.88	99.88	99.89	99.85				
CNC1(c2cccc(OC(F)(F)F)c2)CCCC(O)C1=O.Cl (centres unmarked) [Comparative compound 11, reference compound]	98.15	87.8	75.44					
CC(=O)N[C@@]1(c2ccc(C(F)(F)F)cc2)CCC[C@](C)(O)C1=O [Compound 37, N-((1R,3S)-3-hydroxy-3-methyl-2-oxo-1-(4-(trifluoromethyl)phenyl)cyclohexyl)acetamide]					99.69	99.65	99.69	
CN(C)[C@@]1(c2ccc(C(F)(F)F)cc2)CCC[C@@](C)(O)C1=O.Cl [Compound 72, (2R,6R)-2-dimethylamino-6-hydroxy-6-methyl-2-(4-(trifluoromethyl)phenyl)cyclohexan-1-one hydrochloride]	99.69	99.66	99.62	99.61				
CNC1(c2cccc(OC(F)(F)F)c2)CCCC(C)(O)C1=O.Cl (centres unmarked) [Compound 67, 2-hydroxy-2-methyl-6-methylamino-6-(3-(trifluoromethoxy)phenyl)cyclohexan-1-one hydrochloride]	99.82		99.73	99.57				
CN[C@@]1(c2ccccc2Cl)CCC[C@@](C)(O)C1=O.Cl [Compound 70, (2R,6R)-2-(2-chlorophenyl)-6-hydroxy-6-methyl-2-methylaminocyclohexan-1-one hydrochloride]	97.84		97.84	97.82				
CC1(O)CCCC(N)(c2cccc(F)c2F)C1=O.Cl (centres unmarked) [Compound 48, 2-amino-2-(2,3-difluorophenyl)-6-hydroxy-6-methylcyclohexan-1-one hydrochloride]	99.25	99.28	99.28	99.17				
CC(=O)N[C@@]1(c2ccc(C(F)(F)F)cc2)CCC[C@@H](O)C1=O [Comparative compound 10, reference compound]					99.77	99.69	97.51	
CNC1(c2c(F)cc(F)cc2F)CCCC(C)(O)C1=O.Cl (centres unmarked) [Compound 58, 2-hydroxy-2-methyl-6-methylamino-6-(2,4,6-trifluorotoluene)cyclohexan-1-one hydrochloride]	99.34		99.12	99.14				
CCN[C@@]1(c2ccc(C(F)(F)F)cc2)CCC[C@@H](O)C1=O.Cl [Comparative compound 9, reference compound]					98.2	96.8	61	
CC1(O)CCCC(N)(c2cccc(C#N)c2)C1=O.Cl (centres unmarked) [Compound 47, 3-(1-amino-3-hydroxy-3-methyl-2-oxocyclohexyl)benzonitrile hydrochloride]	98.89	98.86		98.86				
Cl.N#Cc1cccc(C2(N)CCCC(O)C2=O)c1 (centres unmarked) [Comparative compound 7, reference compound]	98.1	87.5						
Cl.NC1(c2cccc(F)c2F)CCCC(O)C1=O (centres unmarked) [Comparative compound 12, reference compound]	97.16			94.59				
CNC1(c2cccc(OC(F)(F)F)c2F)CCCC(C)(O)C1=O.Cl (centres unmarked) [Compound 56, 2-(2-fluoro-3-(trifluoromethoxy)phenyl)-6-hydroxy-6-methyl-2-(methylamino)cyclohexan-1-one hydrochloride]	99.61			99.50				
CC1(O)CCCC(N)(c2c(F)cc(F)cc2F)C1=O (centres unmarked) [Compound 44, 2-amino-6-hydroxy-6-methyl-2-(2,4,6-trifluorotoluene)cyclohexan-1-one hydrochloride]	98.45	98.53		98.35				
Cl.N[C@]1(c2ccc(C(F)(F)F)cc2)CCC[C@H](O)C1=O [Comparative compound 2, reference compound]	99.48		97.11	94.26				89.97
CN[C@]1(c2ccc(C(F)(F)F)cc2)CCC[C@@](C)(O)C1=O.Cl [Compound 75, (2R,6S)-2-hydroxy-2-methyl-6-methylamino-6-(4-(trifluoromethyl)phenyl)cyclohexan-1-one hydrochloride]	99.85		99.78	99.77				
CN[C@@]1(c2ccccc2Cl)CCC[C@](C)(O)C1=O.Cl [Compound 69, (2R,6S)-2-(2-chlorophenyl)-6-hydroxy-6-methyl-2-methylaminocyclohexan-1-one hydrochloride]	98.36		98.43	98.34				
Cl.NC1(c2cccc(OC(F)(F)F)c2F)CCCC(O)C1=O (centres unmarked) [Comparative compound 14, reference compound]	98.58			93.96				
CC1(O)CCCC(N)(c2cccc(OC(F)(F)F)c2F)C1=O (centres unmarked) [Compound 43, 2-amino-2-(2-fluoro-3-(trifluoromethoxy)phenyl)-6-hydroxy-6-methylcyclohexan-1-one hydrochloride]	98.73			98.75				
